Laboratory results: patent US10517889B2, “Modulators of SMAD7 expression” (Ionis Pharmaceuticals, Inc., priority 2017, dated 2019)
Strand notation (5' to 3'): a small letter for the sugar, then the base; units joined by * are phosphorothioate-linked, units joined directly phosphodiester-linked; [ ] holds rarer units or linkages, { } end groups; capitals alone tell only the bases. e = 2'-O-(2-methoxyethyl) (MOE); [5mC] = 5-methylcytosine; d = 2'-deoxy (DNA)

Tested on: human SMAD7 mRNA
Assay: Antisense inhibition of human SMAD7 mRNA expression in Hep3B cells by 5-10-5 MOE gapmers, single concentration, electroporation, RT-PCR (Example 1, Study 1 and 2)
Type: cell-based
How it was run: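 Hep3B cells (20,000/well) electroporated with 5-10-5 MOE gapmer at 5,000 nM or 15,000 nM for approximately 24 h. SMAD7 mRNA quantified by real-time PCR with primer probe set RTS5062 and normalized to RIBOGREEN total RNA. Values are percent inhibition relative to untreated controls.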

[1] = Study 2, electroporation with 15,000 nM antisense oligonucleotide, 5-10-5 MOE gapmers targeting SEQ ID NO: 1 and 2
[2] = electroporation, 15,000 nM, approximately 24 hours, relative to untreated control cells, gapmers targeting SEQ ID NO: 1 and 2
[3] = electroporation with 15,000 nM antisense oligonucleotide (Study 2), 5-10-5 MOE gapmers targeting SEQ ID NO: 1 and 2

Substance	% inhibition of SMAD7 mRNA expression [1] [%]	% inhibition of SMAD7 mRNA expression [3] [%]	also measured
771612 (antisense eT*e[5mC]*e[5mC]*eG*eG*dG*dA*dA*dA*dA*dA*d[5mC]*d[5mC]*dT*dG*eA*eT*eG*eT*e[5mC]) [compound 771612]	3	–	–
771613 (antisense e[5mC]*eT*eA*eA*eG*dT*d[5mC]*d[5mC]*dG*dG*dG*dA*dA*dA*dA*eA*e[5mC]*e[5mC]*eT*eG) [compound 771613]	–	–	% inhibition of SMAD7 mRNA expression [2]: 21%
771614 (antisense eG*eT*eT*eT*eT*d[5mC]*dT*dA*dA*dG*dT*d[5mC]*d[5mC]*dG*dG*eG*eA*eA*eA*eA) [compound 771614]	25	–	–
771615 (antisense eA*eG*e[5mC]*eT*eG*dG*dT*dT*dT*dT*d[5mC]*dT*dA*dA*dG*eT*e[5mC]*e[5mC]*eG*eG) [compound 771615]	45	–	–
771616 (antisense eT*eG*e[5mC]*eT*eG*dA*dG*d[5mC]*dT*dG*dG*dT*dT*dT*dT*e[5mC]*eT*eA*eA*eG) [compound 771616]	–	0	% Inhibition of SMAD7 mRNA [3]: 33%
771617 (antisense e[5mC]*eA*eG*eT*eG*d[5mC]*dT*dG*dA*dG*d[5mC]*dT*dG*dG*dT*eT*eT*eT*e[5mC]*eT) [compound 771617]	–	10	–
771618 (antisense e[5mC]*eA*eG*eG*eA*dT*dG*dG*dG*dA*dG*d[5mC]*dA*dG*dG*e[5mC]*eA*eG*eT*eG) [compound 771618]	–	30	–
771620 (antisense e[5mC]*eA*e[5mC]*eA*e[5mC]*dA*dG*dG*dA*dT*dG*dG*dG*dA*dG*e[5mC]*eA*eG*eG*e[5mC]) [compound 771620]	12	–	–
771621 (antisense eA*e[5mC]*eA*e[5mC]*eA*d[5mC]*dA*dG*dG*dA*dT*dG*dG*dG*dA*eG*e[5mC]*eA*eG*eG) [compound 771621]	–	–	% inhibition of SMAD7 mRNA expression [2]: 36%
771622 (antisense eA*eA*e[5mC]*eA*e[5mC]*dA*d[5mC]*dA*dG*dG*dA*dT*dG*dG*dG*eA*eG*e[5mC]*eA*eG) [compound 771622]	34	–	–
771623 (antisense eT*eA*eA*e[5mC]*eA*d[5mC]*dA*d[5mC]*dA*dG*dG*dA*dT*dG*dG*eG*eA*eG*e[5mC]*eA) [compound 771623]	51	–	–
771624 (antisense eT*eT*eA*eA*e[5mC]*dA*d[5mC]*dA*d[5mC]*dA*dG*dG*dA*dT*dG*eG*eG*eA*eG*e[5mC]) [compound 771624]	–	0	% Inhibition of SMAD7 mRNA [3]: 27%
771625 (antisense eG*e[5mC]*eT*eT*eA*dA*d[5mC]*dA*d[5mC]*dA*d[5mC]*dA*dG*dG*dA*eT*eG*eG*eG*eA) [compound 771625]	–	48	–
771626 (antisense eG*e[5mC]*eA*eG*eA*dG*d[5mC]*dT*dT*dA*dA*d[5mC]*dA*d[5mC]*dA*e[5mC]*eA*eG*eG*eA) [compound 771626]	–	35	–
771628 (antisense e[5mC]*e[5mC]*eA*eG*eG*dG*dA*d[5mC]*dA*dT*d[5mC]*d[5mC]*d[5mC]*d[5mC]*dG*e[5mC]*eT*eT*eG*e[5mC]) [compound 771628]	12	–	–
771629 (antisense eA*eG*e[5mC]*eA*eT*dG*dT*d[5mC]*d[5mC]*d[5mC]*dT*d[5mC]*d[5mC]*d[5mC]*dA*eG*eG*eG*eA*e[5mC]) [compound 771629]	–	–	% inhibition of SMAD7 mRNA expression [2]: 25%
771630 (antisense eT*eG*e[5mC]*eT*eA*dA*dG*d[5mC]*dA*dT*dG*dT*d[5mC]*d[5mC]*d[5mC]*eT*e[5mC]*e[5mC]*e[5mC]*eA) [compound 771630]	37	–	–
771631 (antisense eG*eG*eG*eA*e[5mC]*dT*dG*d[5mC]*dT*dA*dA*dG*d[5mC]*dA*dT*eG*eT*e[5mC]*e[5mC]*e[5mC]) [compound 771631]	0	–	–
771633 (antisense eG*eA*e[5mC]*e[5mC]*eA*dA*dA*dT*d[5mC]*d[5mC]*dT*dT*d[5mC]*dT*dT*eG*eG*eA*eG*eG) [compound 771633]	–	40	–
771637 (antisense eT*eG*eG*eT*eA*d[5mC]*d[5mC]*dT*dT*dG*dG*dG*dT*dT*dA*eT*eG*eA*e[5mC]*eG) [compound 771637]	–	–	% inhibition of SMAD7 mRNA expression [2]: 23%
771638 (antisense eT*eA*eG*eG*eA*dT*dG*dG*dT*dA*d[5mC]*d[5mC]*dT*dT*dG*eG*eG*eT*eT*eA) [compound 771638]	41	–	–
771639 (antisense e[5mC]*eA*eG*e[5mC]*e[5mC]*dT*dA*dG*dG*dA*dT*dG*dG*dT*dA*e[5mC]*e[5mC]*eT*eT*eG) [compound 771639]	51	–	–
771640 (antisense eG*eG*eT*eG*eT*d[5mC]*dA*dG*d[5mC]*d[5mC]*dT*dA*dG*dG*dA*eT*eG*eG*eT*eA) [compound 771640]	–	0	% Inhibition of SMAD7 mRNA [3]: 35%

Substance	% inhibition of SMAD7 mRNA expression [1] [%]	% inhibition of SMAD7 mRNA expression [3] [%]	also measured
771642 (antisense eA*eG*eA*eA*eG*dA*dG*dT*dT*dA*dG*dG*dT*dG*dT*e[5mC]*eA*eG*e[5mC]*e[5mC]) [compound 771642]	–	36	–
771644 (antisense eG*eA*eA*eG*eA*dA*dA*dT*dG*dA*dA*dA*dG*dA*dA*eG*eA*eG*eT*eT) [compound 771644]	0	–	–
771645 (antisense eG*eT*eT*eG*eT*dA*dG*dA*dA*dG*dA*dA*dA*dT*dG*eA*eA*eA*eG*eA) [compound 771645]	–	–	% inhibition of SMAD7 mRNA expression [2]: 38%
771646 (antisense eT*eA*eT*eG*eA*dG*dT*dT*dG*dT*dA*dG*dA*dA*dG*eA*eA*eA*eT*eG) [compound 771646]	0	–	–
771647 (antisense eG*eA*eG*eT*eG*dT*dA*dT*dG*dA*dG*dT*dT*dG*dT*eA*eG*eA*eA*eG) [compound 771647]	6	–	–
771648 (antisense e[5mC]*eA*eT*eA*e[5mC]*dG*dA*dG*dT*dG*dT*dA*dT*dG*dA*eG*eT*eT*eG*eT) [compound 771648]	–	0	% Inhibition of SMAD7 mRNA [3]: 17%
771649 (antisense eA*eA*eG*eT*eA*dT*d[5mC]*dA*dT*dA*d[5mC]*dG*dA*dG*dT*eG*eT*eA*eT*eG) [compound 771649]	–	0	–
771650 (antisense eG*eA*eA*eG*eT*dA*dT*d[5mC]*dA*dT*dA*d[5mC]*dG*dA*dG*eT*eG*eT*eA*eT) [compound 771650]	–	24	–
771652 (antisense eA*eT*eT*eG*eA*dG*d[5mC]*dT*dA*dA*dG*dA*dA*d[5mC]*dA*eG*eT*eG*eT*e[5mC]) [compound 771652]	0	–	–
771653 (antisense eT*eG*e[5mC]*eT*e[5mC]*dA*dT*dT*dG*dA*dG*d[5mC]*dT*dA*dA*eG*eA*eA*e[5mC]*eA) [compound 771653]	–	–	% inhibition of SMAD7 mRNA expression [2]: 33%
771654 (antisense eA*eA*eA*e[5mC]*eA*dT*dG*d[5mC]*dT*d[5mC]*dA*dT*dT*dG*dA*eG*e[5mC]*eT*eA*eA) [compound 771654]	32	–	–
771655 (antisense eA*eG*eT*e[5mC]*eT*dA*dA*dA*d[5mC]*dA*dT*dG*d[5mC]*dT*d[5mC]*eA*eT*eT*eG*eA) [compound 771655]	14	–	–
771656 (antisense eG*eT*eT*eA*eA*dA*dG*dT*d[5mC]*dT*dA*dA*dA*d[5mC]*dA*eT*eG*e[5mC]*eT*e[5mC]) [compound 771656]	–	0	% Inhibition of SMAD7 mRNA [3]: 35%
771657 (antisense e[5mC]*eT*eT*eA*eT*dG*dT*dT*dA*dA*dA*dG*dT*d[5mC]*dT*eA*eA*eA*e[5mC]*eA) [compound 771657]	–	6	–
771658 (antisense eA*eA*eT*eA*eG*d[5mC]*dT*dT*dA*dT*dG*dT*dT*dA*dA*eA*eG*eT*e[5mC]*eT) [compound 771658]	–	33	–
771660 (antisense eT*eT*e[5mC]*eT*e[5mC]*dT*dT*dG*dT*dT*d[5mC]*dA*dT*dT*dT*eA*eA*eA*e[5mC]*e[5mC]) [compound 771660]	0	–	–
771662 (antisense eA*eT*eG*eA*eG*dA*dA*dT*dG*d[5mC]*dT*dT*d[5mC]*dT*d[5mC]*eT*eT*eG*eT*eT) [compound 771662]	29	–	–
771664 (antisense eT*eA*eA*eA*eT*dT*dT*d[5mC]*d[5mC]*dA*dA*dT*dG*dA*dG*eA*eA*eT*eG*e[5mC]) [compound 771664]	–	5	% Inhibition of SMAD7 mRNA [3]: 25%
771665 (antisense eA*eA*eT*eG*e[5mC]*dT*dA*dA*dA*dT*dT*dT*d[5mC]*d[5mC]*dA*eA*eT*eG*eA*eG) [compound 771665]	–	24	–
771666 (antisense eA*e[5mC]*eT*eA*e[5mC]*dA*dA*dT*dG*d[5mC]*dT*dA*dA*dA*dT*eT*eT*e[5mC]*e[5mC]*eA) [compound 771666]	–	39	–
771668 (antisense e[5mC]*eT*e[5mC]*eT*e[5mC]*dA*dA*dA*dG*d[5mC]*dA*d[5mC]*dT*dA*d[5mC]*eA*eA*eT*eG*e[5mC]) [compound 771668]	9	–	–
771669 (antisense eT*eT*eT*e[5mC]*eT*d[5mC]*dT*d[5mC]*dT*d[5mC]*dA*dA*dA*dG*d[5mC]*eA*e[5mC]*eT*eA*e[5mC]) [compound 771669]	–	–	% inhibition of SMAD7 mRNA expression [2]: 55%
771672 (antisense eT*eT*eT*eT*eT*dT*d[5mC]*dA*dG*dG*dA*dG*dT*d[5mC]*d[5mC]*eT*eT*eT*e[5mC]*eT) [compound 771672]	–	2	% Inhibition of SMAD7 mRNA [3]: 30%
